Assay results: patent US10064834B2, “Carbidopa for the treatment of cancer” (Texas Tech University System, priority 2016, dated 2018)
Read-outs that look alike come from different tables or passages of the source.

Assays:
AhR [1] = system: AhR
Experimental: With a fixed concentration (10 μM), the inventors compared in HepG2 cells the induction of CYP1A1 by Carbidopa with that by other known AhR agonists, which included 3-ethylcholanthrene, benzo[a]pyrene, kynurenine, indole-3-carbinol, and indole acetic acid (Table 1).

AhR [2] = settings: BxPC-3, Carbidopa 10 μM, 6 h
AhR [3] = settings: Capan-2
BxPC-3 cells [4] = assay: Colony formation (clonogenic) assay, BxPC-3; type: cell-based, human
Experimental: Clonogenic assay was performed as described [12]. The cells were seeded at a very low density (500 cells/well) and allowed to attach to the substratum. They were then treated with 10 μM Carbidopa and the colonies were allowed to grow for two weeks. The wells were washed every other day and fresh Carbidopa was added to the wells. At the end of the two-week period, the wells were washed and the colonies were visualized with KaryoMax Giemsa stain after fixation with methanol. The stain was eluted with 1% sodium dodecyl sulfate in 0.2 NaOH and the absorbance was measured at 630 nm.

Panc-1 cells = assay: Colony formation assay, Panc-1; type: cell-based; settings: Homo sapiens; Panc-1, colony formation; read-out: Carbidopa concentration for 50% inhibition of growth
Description: Colony formation assay was used to assess the effect.

Capan-2 cells = assay: Colony formation (clonogenic) assay, Capan-2; type: cell-based, human; settings: Capan-2, 10 μM, two weeks
Experimental: (§1) Cell proliferation. Clonogenic assay was performed as described. The cells were seeded at a very low density (500 cells/well) and allowed to attach to the substratum. […] The wells were washed every other day and fresh Carbidopa was added to the wells. At the end of the two-week period, the wells were washed and the colonies were visualized with KaryoMax Giemsa stain after fixation with methanol. The stain was eluted with 1% sodium dodecyl sulfate in […] and the absorbance was measured at 630 nm. Inhibition of pancreatic cancer cell proliferation by Carbidopa and its potential relevance to the ability of the drug to inhibit IDO1. To test whether Carbidopa has anticancer effect, the inventors used pancreatic cancer as a model. For this, the inventors first conducted a colony formation assay with a human pancreatic normal cell line (hTERT-HPNE) and two human pancreatic cancer cell lines (BxPC-3 and Capan-2). […] To corroborate these in vitro data, the inventors performed subcutaneous xenografts in athymic nude mice using BxPC-3 cells.

hTERT-HPNE cells = assay: Colony formation (clonogenic) assay, normal pancreatic cell line; type: cell-based, human; settings: 10 μM, two weeks
Experimental: as §1

MB-231 cells = assay: Colony formation assay, ER-negative breast cancer cells; type: cell-based, human
Description: Breast cancer occurs in different subtypes: estrogen receptor-positive, estrogen receptor-negative, and BRCA1-mutant. The MMTV-PyMT-Tg mice represent estrogen receptor-positive breast cancer at least at the initial stages. To assess the potential of Carbidopa for the treatment of ER-negative breast cancer, the inventors used the human breast cancer cell line MB-231, a well-established model to study ER-negative breast cancer in model systems. The inventors monitored the effect of Carbidopa (dose response) on the growth of these cells using the colony formation assay.

HCC-1937 cells = assay: Colony formation assay, BRCA-1 mutant breast cancer cells; type: cell-based, human
Description: Breast cancer occurs in different subtypes: estrogen receptor-positive, estrogen receptor-negative, and BRCA1-mutant. Mutations in BRCA-1 represent a small percentage of breast cancers in women but the disease is inheritable. […] To assess the potential of Carbidopa for the treatment of mutant BRCA-1-driven breast cancer, the inventors used the human breast cancer cell line HCC-1937, a well-established model to study mutant BRCA-1-driven breast cancer in model systems. The inventors monitored the effect of Carbidopa (dose response) on the growth of these cells using the colony formation assay.

BxPC-3 cells [5] = assay: Subcutaneous BxPC-3 xenograft in athymic nude mice; type: in vivo, mouse
Experimental: FIGS. 2A and 2B show the in vivo effect of Carbidopa on the growth of BxPC-3 cells in mouse xenografts. The cells were injected subcutaneously in athymic nude mice. Carbidopa (1 mg/mouse) was injected intraperitoneally (i.p.) two days prior to the injection of the tumor cells (prevention mode). Drug injection was continued every day at the same dose. […] The growth of the tumor at the injected site was monitored every other day.
Xenograft studies. Female athymic nu/nu mice (8-week-old) were allowed to acclimatize to the environment for about a week before the start of the experiment. The animals were divided into control and treatment groups and injected with phosphate-buffered saline (control group) and Carbidopa @ 1 mg/mouse/day) (treatment group) intraperitoneally, at least 5 days prior to tumor cell injection. BxPC-3 (10×10^6 cells in 30% matrigel) was injected subcutaneously at the right flank of the mice. The treatment continued all through the experimental period. Tumor size in different groups were measured using a caliper and the tumor volume was calculated using the formula (width^2×length)/2.

[6] = system: spontaneous breast cancer driven by the polyoma middle T antigen oncogene; assay: Spontaneous breast cancer in MMTV-PyMT-Tg mice; type: in vivo; settings: 1 mg/mouse i.p.
Description: The MMTV-PyMT-Tg mice develop spontaneous breast tumors within 2 months of age. […] The drug treatment was started at 4 weeks of age and continued for two months. The mice were photographed at the end of this experimental period. The circles indicate the tumor size in two representative control mice and two representative Carbidopa-treated mice. […] The MMTV-PyMT-Tg mice develop spontaneous breast tumors within 2 months of age. […] The drug treatment was started at 4 weeks of age and continued for three months. The mice were photographed at the end of the study period. The circles indicate the tumor size in two representative control mice and two representative Carbidopa-treated mice.

[7] = system: Ki-67, p-mTOR, HIF1α and Cyp1a1 protein expression; assay: Immunohistochemical analysis in MMTV-PyMT-Tg mice; type: in vivo, mouse; settings: Carbidopa-treated MMTV-PyMT-Tg mice
Description: FIG. 8 is an immunohistochemical analysis of Ki-67, p-mTOR, HIF1α and Cyp1a1 protein expression in MMTV-PyMT-Tg mice treated with and without Carbidopa. […] Hypoxia is a key regulatory factor in tumor progression and in response to the hypoxic tumor environment, it regulates cell metabolism and redox homeostasis. HIF1α level in tumors is controlled by mTOR. […] To further validate the data, the inventors measured the expression of Cyp1a1 in MMTV-PyMT-Tg mice treated with and without Carbidopa. Cyp1a1 is an aryl hydrocarbon (AhR) receptor-responsive gene induced in response to AhR activation. AhR is activated by kynurenine, a product of IDO1 action on tryptophan. Thus, Cyp1a1 levels in tumor tissues serve as a read out for IDO1 activity. […] H&E, hematoxylin and eosin stain.

[8] = biological target: recombinant human indoleamine dioxygenase-1 (IDO1) (Homo sapiens, UniProt P14902); assay: IDO1 enzymatic activity assay (colorimetric); type: biochemical
recombinant human indoleamine dioxygenase-1 (IDO1), sequence (P14902 whole entry): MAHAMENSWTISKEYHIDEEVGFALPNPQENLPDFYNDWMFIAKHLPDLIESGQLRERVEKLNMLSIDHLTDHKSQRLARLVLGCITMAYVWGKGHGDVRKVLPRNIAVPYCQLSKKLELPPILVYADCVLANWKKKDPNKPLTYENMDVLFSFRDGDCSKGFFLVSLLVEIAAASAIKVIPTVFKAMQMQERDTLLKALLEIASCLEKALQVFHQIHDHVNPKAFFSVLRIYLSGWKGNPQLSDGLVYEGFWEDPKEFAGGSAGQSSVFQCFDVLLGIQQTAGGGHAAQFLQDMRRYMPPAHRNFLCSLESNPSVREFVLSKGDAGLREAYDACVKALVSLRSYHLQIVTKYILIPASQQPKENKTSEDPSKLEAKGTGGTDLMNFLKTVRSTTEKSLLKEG
Description: IDO-1 is an immunosuppressive enzyme that is induced in tumor cells and in immune cells present in tumor-draining lymph nodes. Induction of this enzyme suppresses the ability of the immune system to recognize tumor cells as foreign cells, which provides a means for the tumor cells to escape the immune attack. Pharmacological inhibition of this enzyme has potential in cancer treatment because such an approach will potentiate the ability of the immune system to kill the tumor cells. Many pharmaceutical companies have research programs in identifying selective inhibitors of IDO-1 for this purpose and some of the drugs are already in clinical trials in cancer patients. The present inventors assessed the ability of Carbidopa on the activity of this enzyme using the recombinant human enzyme.
To date, the only known pharmacological action of Carbidopa is the inhibition of aromatic amino acid decarboxylase, but the inventors are not aware of any direct association between this enzyme and cancer. Therefore, the inventors looked for new, hitherto unknown, pharmacological actions for this drug that could be related to the observed anticancer effect. […]

AhR [9] = assay: Immunofluorescence localisation of AhR; type: cell-based, human; settings: 25 μM for 6 h
Experimental: Immunofluorescence. Immunofluorescence studies were performed as described [12]. Briefly, cells grown on chamber slides were fixed, blocked and stained with mouse anti-AhR antibody (Abcam, Cambridge, Mass., USA) for 45 min after which they were washed and stained with secondary antibody (goat anti-mouse IgG) conjugated with Alexa Fluor 488 (Molecular Probes, Eugene, Oreg., USA); further washed and mounted with ProLong Diamond Antifade mountant with DAPI and the images were captured using a Nikon inverted microscope. Nuclei stained with DAPI are blue. Magnification, 100×.

[10] = human, oral, cited from earlier work
[11] = cited from earlier work
[12] = in vivo; cited from earlier work
[13] = in vivo; cited from earlier work; remark: listed apart in the source
[14] = biological target: indoleamine-2,3-dioxygenase 1 (IDO1) (Homo sapiens, UniProt P14902); settings: reference [13]; cited from earlier work
indoleamine-2,3-dioxygenase 1 (IDO1), sequence (P14902 whole entry): as above

Cc1ccc2cc3c(ccc4ccccc43)c3c2c1CC3 [3-Methylcholanthrene]
CYP1A1 expression, Fold [range] (AhR [1]; HepG2 cells, 10 micromolar): 56.8 Fold

c1ccc2c(c1)cc1ccc3cccc4ccc2c1c34 [Benzo [a] pyrene]
CYP1A1 expression, Fold [range] (AhR [1]; HepG2 cells, 10 micromolar): 35.3 Fold

Cc1ccccc1N=Nc1ccc(NC(=O)c2ccnn2C)c(C)c1 [CH223191]
effect of AhR antagonist on Carbidopa-induced CYP1A1 expression (AhR [1]; HepG2, Carbidopa 10 μM, CH223191 10 μM, resveratrol 20 μM, 6 h): blocked
effect of AhR antagonist on Carbidopa-induced CYP1A1 expression (AhR [2]): blocked
effect of AhR antagonist on Carbidopa-induced CYP1A1 expression (AhR [3]): blocked

C[C@@](Cc1ccc(O)c(O)c1)(NN)C(=O)O [Carbidopa, (2S)-3-(3,4-dihydroxyphenyl)-2-hydrazino-2-methylpropanoic acid]
growth of BxPC-3 cells (BxPC-3 cells [4]; 10 μM Carbidopa, colony formation): almost completely abolished
number of colonies compared to untreated controls (BxPC-3 cells [4]; BxPC-3, 10 μM, two weeks): significantly reduced
IC50 (Panc-1 cells): < 50 µM
number of colonies compared to untreated controls (Capan-2 cells): significantly reduced
number of colonies compared to untreated controls (hTERT-HPNE cells): not seen
IC50 (MB-231 cells; Homo sapiens, MB-231, colony formation, read-out: Carbidopa concentration for 50% inhibition of growth): < 15 µM
effect on the growth of the cells (MB-231 cells; MB-231, dose response): marked inhibitory effect
effect on the growth of the cells (HCC-1937 cells; HCC-1937, dose response): marked inhibitory effect
IC50 (HCC-1937 cells; Homo sapiens, HCC1937, HCC-1937, colony formation, read-out: Carbidopa concentration for 50% inhibition of growth): < 25 µM
growth of the tumor (BxPC-3 cells [5]; 1 mg/mouse i.p. every day, prevention mode): reduced the growth of the tumor markedly
tumor volume compared to untreated controls (BxPC-3 cells [5]; daily dose of 1 mg/mouse, intraperitoneal): significantly reduced the tumor volume
number and size of the tumors ([6]; treatment for three months): reduced the number and size of the tumors
number and size of the tumors ([6]; treatment for two months): reduced the number and size of the tumors
Cyp1a1 expression in tumor tissues [7]: significant reduction in Cyp1a1 expression
HIF1α protein [7]: marked decrease in HIF1α protein
Ki-67 staining (cell proliferation) [7]: marked reduction in proliferation
p-mTOR staining [7]: marked reduction in p-mTOR staining
inhibition of IDO-1 enzyme activity ([8]; 10 μM): inhibits IDO-1 significantly
inhibition of IDO1 enzyme activity ([8]; colorimetric assay of kynurenine, efficacy said to be markedly underestimated): does indeed inhibit IDO1
localisation of AhR (AhR [9]; BxPC-3 cells): nuclear translocation of the receptor
localisation of AhR (AhR [9]; Capan-2 cells): nuclear translocation of the receptor
localisation of AhR (AhR [9]; HepG2 cells): led to the nuclear translocation of AhR
concentrations at which Carbidopa activates AhR (AhR [1]): 3000 to 10000 nM
CYP1A1 expression, Fold [range] (AhR [1]; human, 10 μM): 2.63 Fold
time post-treatment at which CYP1A1 induction is seen (AhR [1]; human, 10 μM): ≤ 3 h
plasma concentration ([10]; 75 mg/day dose): 2000 nM
plasma concentration ([10]; 450 mg/day dose): 16000 nM
side effects in humans ([11]; <400 mg/day in patients weighing 60 kg): no unwanted side effects
safety in humans ([11]; dose as high as 450 mg/day): safe
crossing of the blood-brain barrier [12]: inability of the latter to cross the blood-brain barrier
oral bioavailability [13]: orally bioavailable

OCc1c[nH]c2ccccc12 [Indole 3-carbinol]
CYP1A1 expression, Fold [range] (AhR [1]; HepG2 cells, 10 micromolar): 7.62 Fold

Nc1ccccc1C(=O)CC(N)C(=O)O (stereo not shown) [Kynurenine]
CYP1A1 expression, Fold [range] (AhR [1]; human, 10 μM): 3.97 Fold

N[C@@H](Cc1ccc(O)c(O)c1)C(=O)O [L-DOPA, L-3,4-dihydroxyphenylalanine]
CYP1A1 mRNA expression (AhR [1]; human, 6 h, 100 μM): did not affect CYP1A1 expression

NNc1ccccc1 [phenylhydrazine]
IC50 [14]: 8 ± 2 µM
